According to ChEMBL document CHEMBL1201862, “PubChem BioAssay data set” (2004):
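Dose response: 5 concentrations. Exposure: 48 h. Format: 96-well plates. Endpoint: linear interpolation; highest concentration if not reached. GI50: concentration for 50% inhibition of growth.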 Calls of active or inactive are those of the source. No stated cut-off is given here; in the data, active = GI50 up to about 1.1 µM and inactive = higher.

Legend:
Experiment in all cases: growth of human tumour cells (NCI), 48 h
[1] = test system: U-251
[2] = test system: MCF7
[3] = test system: ACHN
[4] = test system: SK-MEL-5
[5] = test system: HCC 2998
[6] = test system: IGROV-1
[7] = test system: HOP-92
[8] = test system: RXF 393
[9] = test system: OVCAR-3
[10] = test system: NCI-H522
[11] = test system: UO-31
[12] = test system: NCI-H23
[13] = test system: HT-29
[14] = test system: 786-0
[15] = test system: LOX IMVI
[16] = test system: SW-620
[17] = test system: SNB-75
[18] = test system: T47D
[19] = test system: SNB-19
[20] = test system: Malme-3M

Row | SMILES | GI50 [1] | GI50 [2] | GI50 [3] | GI50 [4] | GI50 [5] | GI50 [6] | GI50 [7] | GI50 [8] | GI50 [9] | GI50 [10] | GI50 [11] | GI50 [12] | GI50 [13] | GI50 [14] | GI50 [15] | GI50 [16] | GI50 [17] | GI50 [18] | GI50 [19] | GI50 [20]
1 | COc1ccc(NCc2cnc3nc(N)nc(N)c3c2C)cc1 | 0.555 µM (active) | 2.13 µM (inactive) | 0.56 µM (active) | 0.419 µM (active) | 12.7 µM (inactive) | 0.771 µM (active) | 5.93 µM (inactive) | 43.5 µM (inactive) | 28.4 µM (inactive) | 5.52 µM (inactive) | > 49.8 µM (inactive) | 0.628 µM (active) | 0.406 µM (active) | 0.254 µM (active) | 0.316 µM (active) | 0.914 µM (active) | 52 µM (inactive) | 15 µM (inactive) | 21 µM (inactive) | –
2 | Cc1ccccc1/N=N/c1ccc(N/N=C2/CCCNC2=O)c(C)c1 | > 100 µM (inactive) | 64.1 µM (inactive) | > 100 µM (inactive) | 45.2 µM (inactive) | > 100 µM (inactive) | > 100 µM (inactive) | > 100 µM (inactive) | > 100 µM (inactive) | – | 31.2 µM (inactive) | 39.5 µM (inactive) | > 100 µM (inactive) | > 100 µM (inactive) | > 100 µM (inactive) | > 100 µM (inactive) | > 100 µM (inactive) | – | 33 µM (inactive) | > 100 µM (inactive) | > 100 µM (inactive)
3 | O=C(CC(=O)N1N=C(N(c2ccccc2)c2ccccc2)CC1c1ccccc1)Nc1ccccc1 (stereo not given) | 56.6 µM (inactive) | > 100 µM (inactive) | > 100 µM (inactive) | > 100 µM (inactive) | > 100 µM (inactive) | > 100 µM (inactive) | > 100 µM (inactive) | 49.8 µM (inactive) | > 100 µM (inactive) | 64.1 µM (inactive) | > 100 µM (inactive) | > 100 µM (inactive) | > 100 µM (inactive) | 81.7 µM (inactive) | – | > 100 µM (inactive) | 61.4 µM (inactive) | > 100 µM (inactive) | 78 µM (inactive) | –
4 | CC(C)OC(=O)[C@H]1ON2O[C@H](O[C@@H]3CCCC[C@H]3c3ccccc3)C([Si](C)(C)c3ccccc3)[C@H]3OC(=O)[C@@H]1C32 (stereo not given in full) | > 100 µM (inactive) | 30.1 µM (inactive) | > 100 µM (inactive) | > 100 µM (inactive) | > 100 µM (inactive) | > 100 µM (inactive) | > 100 µM (inactive) | > 100 µM (inactive) | > 100 µM (inactive) | 81.3 µM (inactive) | > 100 µM (inactive) | > 100 µM (inactive) | > 100 µM (inactive) | > 100 µM (inactive) | > 100 µM (inactive) | > 100 µM (inactive) | > 100 µM (inactive) | 87.5 µM (inactive) | > 100 µM (inactive) | –
5 | CSc1s[s+]c(SC)c1-c1ccccc1 | 19.4 µM (inactive) | 17 µM (inactive) | 16.3 µM (inactive) | 15.7 µM (inactive) | 5.62 µM (inactive) | 17.6 µM (inactive) | 13.2 µM (inactive) | 16.3 µM (inactive) | 15 µM (inactive) | 11.7 µM (inactive) | 18.4 µM (inactive) | 16.9 µM (inactive) | 17.5 µM (inactive) | 14.1 µM (inactive) | 25.9 µM (inactive) | 16.4 µM (inactive) | – | 32.6 µM (inactive) | 16.6 µM (inactive) | 11.3 µM (inactive)
6 | O=C(O)c1ccc(C=C2Sc3ccccc3S2)cc1 | 48.2 µM (inactive) | 35 µM (inactive) | 22.6 µM (inactive) | 51.6 µM (inactive) | 8.07 µM (inactive) | 82.8 µM (inactive) | 64.4 µM (inactive) | 54.5 µM (inactive) | 30.3 µM (inactive) | 26.1 µM (inactive) | 63.8 µM (inactive) | > 100 µM (inactive) | 43.5 µM (inactive) | 98.2 µM (inactive) | 52 µM (inactive) | > 100 µM (inactive) | – | 45 µM (inactive) | 73.8 µM (inactive) | 84.7 µM (inactive)
7 | Cc1nn(C(=O)c2ccc(Cl)cc2)c2c1C(c1ccc([N+](=O)[O-])cc1)SC(=N)N2 (stereo not given) | > 10 µM (inactive) | > 10 µM (inactive) | > 10 µM (inactive) | > 10 µM (inactive) | > 10 µM (inactive) | > 10 µM (inactive) | > 10 µM (inactive) | > 10 µM (inactive) | > 10 µM (inactive) | > 10 µM (inactive) | – | > 10 µM (inactive) | > 10 µM (inactive) | > 10 µM (inactive) | > 10 µM (inactive) | > 10 µM (inactive) | > 10 µM (inactive) | > 10 µM (inactive) | > 10 µM (inactive) | > 10 µM (inactive)
8 | CO/N=C(\C(=O)Nc1cncs1)c1csc(N)n1 | > 10 µM (inactive) | > 10 µM (inactive) | > 10 µM (inactive) | > 10 µM (inactive) | > 10 µM (inactive) | > 10 µM (inactive) | > 10 µM (inactive) | – | > 10 µM (inactive) | > 10 µM (inactive) | > 10 µM (inactive) | > 10 µM (inactive) | > 10 µM (inactive) | > 10 µM (inactive) | > 10 µM (inactive) | > 10 µM (inactive) | > 10 µM (inactive) | > 10 µM (inactive) | > 10 µM (inactive) | > 10 µM (inactive)
9 | C/C(=N\NC(=S)Nc1ccc([N+](=O)[O-])cc1)c1nc2cccnc2[nH]1 | 0.251 µM (active) | 0.611 µM (active) | 0.378 µM (active) | 0.991 µM (active) | 1.15 µM (inactive) | 0.942 µM (active) | 1.51 µM (inactive) | – | 0.299 µM (active) | 1.06 µM (active) | 0.322 µM (active) | 0.713 µM (active) | 0.615 µM (active) | 0.748 µM (active) | 0.442 µM (active) | 0.906 µM (active) | 1.38 µM (inactive) | 0.693 µM (active) | 0.824 µM (active) | 1.36 µM (inactive)
10 | CCCC1C(CC)C(NC)C(C#N)(C#N)C1(C#N)C#N (stereo not given) | 28.1 µM (inactive) | 23.5 µM (inactive) | 18.1 µM (inactive) | 12.1 µM (inactive) | 18 µM (inactive) | 15.7 µM (inactive) | 14 µM (inactive) | 13.1 µM (inactive) | – | 13.9 µM (inactive) | 14.6 µM (inactive) | 21.4 µM (inactive) | 13.6 µM (inactive) | 15.4 µM (inactive) | 16.3 µM (inactive) | 36.8 µM (inactive) | 10 µM (inactive) | 14.5 µM (inactive) | 22.5 µM (inactive) | 21.2 µM (inactive)
11 | CC(C)=C[C@@H]1O[C@H](O)[C@@H]([C@H]2CC[C@@]3(C)[C@@H]4CC[C@H]5C(C)(C)C(=O)CC[C@@]56C[C@@]46CC[C@]23C)[C@@H]1O | 17 µM (inactive) | 4.14 µM (inactive) | 18.1 µM (inactive) | 17.7 µM (inactive) | 18.6 µM (inactive) | 19.5 µM (inactive) | 16.6 µM (inactive) | 12.7 µM (inactive) | 13.2 µM (inactive) | 13.1 µM (inactive) | 15.3 µM (inactive) | 16.4 µM (inactive) | 11.8 µM (inactive) | 14.3 µM (inactive) | – | 13.1 µM (inactive) | 17.7 µM (inactive) | 14.6 µM (inactive) | 20.9 µM (inactive) | 16.8 µM (inactive)
12 | CCOC(=O)c1nc2c3c(ncn2n1)Oc1c(c(-c2ccccc2)nn1-c1ccccc1)C3c1ccc(Cl)cc1 (stereo not given) | > 100 µM (inactive) | > 100 µM (inactive) | > 100 µM (inactive) | > 100 µM (inactive) | > 100 µM (inactive) | – | > 100 µM (inactive) | > 100 µM (inactive) | > 100 µM (inactive) | > 100 µM (inactive) | > 100 µM (inactive) | > 100 µM (inactive) | > 100 µM (inactive) | > 100 µM (inactive) | > 100 µM (inactive) | > 100 µM (inactive) | > 100 µM (inactive) | > 100 µM (inactive) | > 100 µM (inactive) | > 100 µM (inactive)
13 | CC(=O)c1ccc(/N=N/N2CCCC2)cc1 | > 100 µM (inactive) | > 100 µM (inactive) | > 100 µM (inactive) | > 100 µM (inactive) | > 100 µM (inactive) | > 100 µM (inactive) | > 100 µM (inactive) | > 100 µM (inactive) | > 100 µM (inactive) | > 100 µM (inactive) | > 100 µM (inactive) | > 100 µM (inactive) | – | > 100 µM (inactive) | > 100 µM (inactive) | > 100 µM (inactive) | > 100 µM (inactive) | > 100 µM (inactive) | > 100 µM (inactive) | –
14 | COc1ccc2c(c1)/C(=C\c1cccc(/C=C3/C(=O)Nc4ccc(OC)cc43)n1)C(=O)N2 | 0.461 µM (active) | 0.466 µM (active) | 1.71 µM (inactive) | 0.834 µM (active) | 0.933 µM (active) | – | 2.25 µM (inactive) | 0.942 µM (active) | 0.676 µM (active) | 0.861 µM (active) | 1.67 µM (inactive) | 0.925 µM (active) | – | 0.964 µM (active) | – | 0.982 µM (active) | 19.1 µM (inactive) | 0.381 µM (active) | 0.805 µM (active) | 2.01 µM (inactive)
15 | COc1cc(O)c(C(=O)/C=C/c2ccccc2)c(OC)c1 [FLAVOKAWAIN B] | 4.6 µM (inactive) | 7.8 µM (inactive) | 8.73 µM (inactive) | 9.27 µM (inactive) | 2.97 µM (inactive) | 4.53 µM (inactive) | 3.72 µM (inactive) | 12.5 µM (inactive) | 7.1 µM (inactive) | 2.42 µM (inactive) | 5.83 µM (inactive) | 5.97 µM (inactive) | 7.66 µM (inactive) | 4.62 µM (inactive) | 2.29 µM (inactive) | 3.85 µM (inactive) | – | 6.82 µM (inactive) | 3.47 µM (inactive) | 4.61 µM (inactive)
